Laboratory results from patent publication US9284283B2, “Macrocyclic compounds for modulating IL-17” (ENSEMBLE THERAPEUTICS CORPORATION, priority 2012, dated 2016).

Tests used:
[1] = biological target: T1, recombinant human IL17a (binding to its receptor IL17R) (Homo sapiens, UniProt Q16552); assay: IL-17 competition ELISA I (IL17a coated, IL17R/Fc binding)
T1 construct: purchased R&D Systems 317-ILB (IL17a); 177-IR (IL17R/Fc)
T1 sequence (Q16552 20-155 limits assumed): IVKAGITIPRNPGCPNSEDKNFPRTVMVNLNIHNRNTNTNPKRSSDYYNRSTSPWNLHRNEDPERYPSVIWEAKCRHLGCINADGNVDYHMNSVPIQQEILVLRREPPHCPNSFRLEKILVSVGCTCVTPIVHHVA
In short: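 Plates coated with 20 nM recombinant human IL17a received compound dilutions and 12 nM IL17R/Fc (final) for 30 min at room temperature. Bound receptor was detected with HRP anti-human Fc and TMB, read at 450 nm. IC50 came from a 4-parameter logistic fit between no-competitor and blank controls.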

[2] = test system: IL-17A induced secretion of IL-6 in primary human RASF cells; assay: Inhibition of IL17A induced secretion of IL6 in human rheumatoid arthritis synovial fibroblast (RASF) cells; format: cell-based; conditions: Homo sapiens, Fibroblast
In short: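 Primary RASF cells (passage 2-8) stimulated 20 h at 37 °C with rhIL-17A (30 ng/mL) pre-incubated 1 h with compound (final 0.03-25 μM, 0.25% DMSO). Supernatant IL-6 measured by ELISA, normalized to WST1 viability; triplicates.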

[3] = biological target: T2, biotinylated human IL-17 (binding to IL17R/Fc) (Homo sapiens, UniProt Q16552); assay: IL-17 competition ELISA II (captured IL17R/Fc, biotinylated IL-17)
T2 construct: purchased R&D Systems 317-ILB (IL-17, biotinylated); 177-IR (IL17R/Fc)
T2 sequence (Q16552 20-155 limits assumed): T1 sequence (Q16552 20-155 limits assumed)
In short: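 Competition read-out: absorbance at 450 nm after streptavidin-HRP/TMB detection, fitted to a 4-parameter logistic model bounded by no-competitor and blank wells to give IC50. Compound was serially diluted 5-fold from 1 μM alongside 20 nM (stock) biotinylated IL-17 on IL17R/Fc (10 nM) captured via goat anti-human IgG, 30 min at room temperature.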

IC50 [1] [nM] | IC50 [3] [nM] | SMILES | IC50 [2] [nM]
< 100 | < 100 | NC(=O)CC[C@H]1NC(=O)[C@@H](Cc2ccc(NC(=O)[C@H](Cc3ccccc3Cl)NC(=O)Cc3ccccc3)cc2)NC(=O)CC2(CCCC2)CC(=O)NCCCCCNC1=O [Compound 341] | < 100
100 to 1000 | < 100 | O=C1CNC(=O)[C@@H](Cc2ccc(NC(=O)[C@H](Cc3ccccc3Cl)NC(=O)Cc3ccccc3)cc2)NC(=O)CC2(CCCC2)CC(=O)NCCNCCN1 [Compound 338] | > 10000
< 100 | < 100 | O=C1CNC(=O)[C@@H](Cc2ccc(NC(=O)[C@H](Cc3ccccc3Cl)NC(=O)c3cccnc3)cc2)NC(=O)CC2(CCCC2)CC(=O)N[C@H](C(=O)O)CCCCN1 [Compound 266] | 100 to 1000
100 to 1000 | < 100 | C[C@H]1NC(=O)[C@@H](Cc2ccc(NC(=O)[C@@H](NC(=O)Cc3ccccc3)C3CCCCC3)cc2)NC(=O)CC2(CCCC2)CC(=O)NCCCCCNC1=O [Compound 342] | 100 to 1000
100 to 1000 | < 100 | C[C@H]1NC(=O)[C@@H](Cc2ccc(NC(=O)[C@H](Cc3ccccc3Cl)NC(=O)c3cccnc3)cc2)NC(=O)CC2(CCCC2)CC(=O)N[C@H](C(=O)O)CCCCNC1=O [Compound 368] | 100 to 1000
100 to 1000 | < 100 | C[C@H]1NC(=O)[C@@H](Cc2ccc(NC(=O)[C@H](Cc3ccccc3Cl)NC(=O)c3cccnc3)cc2)NC(=O)CC2(CCCC2)CC(=O)NCCCCCNC1=O [Compound 353] | 1000 to 10000
100 to 1000 | < 100 | O=C1CNC(=O)[C@@H](Cc2ccc(NC(=O)[C@@H](NC(=O)Cc3cccc(O)c3)C3CCCCC3)cc2)NC(=O)CC2(CCCC2)CC(=O)NCCCCCN1 [Compound 378] | 100 to 1000
< 100 | < 100 | O=C1CNC(=O)[C@@H](Cc2ccc(NC(=O)[C@H](Cc3ccccc3Cl)NC(=O)Cc3ccc(CO)cc3)cc2)NC(=O)CC2(CCCC2)CC(=O)NCCCCCN1 [Compound 218] | < 100
< 100 | < 100 | CN(C)C(=O)N[C@@H](Cc1ccccc1Cl)C(=O)Nc1ccc(C[C@H]2NC(=O)CC3(CCCC3)CC(=O)NCCCCCNC(=O)CNC2=O)cc1 [Compound 274] | 100 to 1000
< 100 | < 100 | O=C1CNC(=O)[C@@H](Cc2ccc(NC(=O)[C@H](CC3CCC3)NC(=O)Cc3ccccc3)cc2)NC(=O)CC2(CCCC2)CC(=O)NCCCCCN1 [Compound 246] | > 10000
100 to 1000 | < 100 | CN1CCCCCNC(=O)CNC(=O)[C@@H](Cc2ccc(NC(=O)[C@@H](NC(=O)Cc3ccccc3)C3CCCCC3)cc2)NC(=O)CC2(CCCC2)CC1=O [Compound 332] | 1000 to 10000
100 to 1000 | < 100 | CNC(=O)N[C@@H](Cc1ccccc1Cl)C(=O)Nc1ccc(C[C@H]2NC(=O)CC3(CCCC3)CC(=O)NCCCCCNC(=O)CNC2=O)cc1 [Compound 273] | 1000 to 10000
100 to 1000 | < 100 | C[C@H]1NC(=O)[C@@H](Cc2ccc(NC(=O)[C@@H](NC(=O)c3cccnc3)C3CCCCC3)cc2)NC(=O)CC2(CCCC2)CC(=O)NCCCCCNC1=O [Compound 361] | 1000 to 10000
< 100 | < 100 | O=C1CNC(=O)[C@@H](Cc2ccc(NC(=O)[C@H](Cc3ccccc3Cl)NC(=O)Cc3ccc(F)cc3)cc2)NC(=O)CC2(CCCC2)CC(=O)NCCCCCN1 [Compound 305] | 100 to 1000
< 100 | < 100 | CC(=O)N[C@@H](Cc1ccccc1Cl)C(=O)Nc1ccc(C[C@H]2NC(=O)CC3(CCCC3)CC(=O)N[C@H](C(=O)O)CCCCNC(=O)CNC2=O)cc1 [Compound 264] | 100 to 1000
100 to 1000 | < 100 | O=C1CNC(=O)[C@@H](Cc2ccc(NC(=O)[C@H](CC3CCCCC3)NC(=O)Cc3ccccc3)cc2)NC(=O)CC2(CCCC2)CC(=O)NCCCCCN1 [Compound 293] | 1000 to 10000
< 100 | < 100 | O=C1CNC(=O)[C@@H](Cc2ccc(NC(=O)[C@H](Cc3ccccc3Cl)NC(=O)NCc3ccccc3)cc2)NC(=O)CC2(CCCC2)CC(=O)NCCCCCN1 [Compound 302] | 100 to 1000
< 100 | < 100 | O=C1CC2(CCCC2)CC(=O)N[C@H](Cc2ccc(NC(=O)[C@H](Cc3ccccc3Cl)NC(=O)Cc3ccccc3)cc2)C(=O)N[C@H](CO)C(=O)NCCCCCN1 [Compound 340] | 100 to 1000
100 to 1000 | < 100 | O=C1CC2(CCCC2)CC(=O)N[C@H](Cc2ccc(NC(=O)[C@@H](NC(=O)Cc3ccc(CO)cc3)C3CCCCC3)cc2)C(=O)N[C@H](Cc2ccccc2)C(=O)NCCCCCN1 [Compound 336] | 100 to 1000
< 100 | < 100 | C[C@H]1NC(=O)[C@@H](Cc2ccc(NC(=O)[C@H](Cc3ccccc3Cl)NC(=O)Cc3ccccc3)cc2)NC(=O)CC2(CCCC2)CC(=O)NCCCCCNC1=O [Compound 288] | < 100

SMILES | IC50 [1] [nM] | IC50 [3] [nM] | IC50 [2] [nM]
C[C@H]1NC(=O)[C@@H](Cc2ccc(NC(=O)[C@@H](NC(=O)Cc3ccccc3)C3CCCCC3)cc2)NC(=O)CC2(CCCC2)CC(=O)N[C@H](C(=O)O)CCCCNC1=O [Compound 369] | < 100 | < 100 | < 100
O=C1CC2(CCCC2)CC(=O)N[C@H](Cc2ccc(NC(=O)[C@H](Cc3ccccc3Cl)NC(=O)Cc3ccccc3)cc2)C(=O)NCC(=O)N[C@H](C(=O)O)CCCCN1 [Compound 339] | < 100 | < 100 | 100 to 1000
O=C1CNC(=O)[C@@H](Cc2ccc(NC(=O)[C@@H](NC(=O)Cc3ccccc3)C3CCCCC3)cc2)NC(=O)CC2(CCCC2)CC(=O)N[C@H](C(=O)O)CCCCN1 [Compound 316] | < 100 | < 100 | 100 to 1000
C[C@H]1NC(=O)[C@@H](Cc2ccc(NC(=O)[C@H](Cc3ccccc3Cl)NC(=O)Cc3ccccc3)cc2)NC(=O)CC2(CCCC2)CC(=O)N[C@H](C(=O)O)CCCCNC1=O [Compound 367] | < 100 | < 100 | < 100
